Reference: PMC9775371, “Structure-Based Virtual Screening and Functional Validation of Potential Hit Molecules Targeting the SARS-CoV-2 Main Protease” (Biomolecules, 2022)

How the values were obtained:
[1] = biological target: T1, SARS-CoV-2 M^pro (main protease, 3CL^pro) (Severe acute respiratory syndrome coronavirus 2, UniProt P0DTD1); assay: BRET-based sensor proteolytic cleavage assay; assay type: biochemical; conditions: read-out: Determined EC50
T1 construct: gene rep
Text: BRET-based sensor proteolytic cleavage assay on SARS-CoV-2 M^pro (main protease, 3CL^pro)

[2] = biological target: T1, SARS-CoV-2 M^pro (main protease, 3CL^pro); assay: BRET-based sensor proteolytic cleavage assay; assay type: biochemical; conditions: 2 μM purified M^pro preincubated with compound 1 h at 37 °C; TBS, 1 M sodium citrate, 1 mM EDTA, 2 mM DTT; mNG-NLuc sensor substrate in HEK 293T lysate; read at 30 min

Row | Compound | EC50 [1] [µM] | EC50 not determined [2]
1 | CCCCc1nc(Cl)c(CO)n1Cc1ccc(-c2ccccc2-c2nn[nH]n2)cc1 [LT, Losartan] | 260 ± 88.6 | 
2 | CCCc1nc2c(C)cc(-c3nc4ccccc4n3C)cc2n1Cc1ccc(-c2ccccc2C(=O)O)cc1 [TM, Telmisartan] |  | Telmisartan completely failed to inhibit M^pro
